The target of the assay is T1, human P-selectin (Homo sapiens, UniProt P16109).
T1 sequence (P16109 42-771): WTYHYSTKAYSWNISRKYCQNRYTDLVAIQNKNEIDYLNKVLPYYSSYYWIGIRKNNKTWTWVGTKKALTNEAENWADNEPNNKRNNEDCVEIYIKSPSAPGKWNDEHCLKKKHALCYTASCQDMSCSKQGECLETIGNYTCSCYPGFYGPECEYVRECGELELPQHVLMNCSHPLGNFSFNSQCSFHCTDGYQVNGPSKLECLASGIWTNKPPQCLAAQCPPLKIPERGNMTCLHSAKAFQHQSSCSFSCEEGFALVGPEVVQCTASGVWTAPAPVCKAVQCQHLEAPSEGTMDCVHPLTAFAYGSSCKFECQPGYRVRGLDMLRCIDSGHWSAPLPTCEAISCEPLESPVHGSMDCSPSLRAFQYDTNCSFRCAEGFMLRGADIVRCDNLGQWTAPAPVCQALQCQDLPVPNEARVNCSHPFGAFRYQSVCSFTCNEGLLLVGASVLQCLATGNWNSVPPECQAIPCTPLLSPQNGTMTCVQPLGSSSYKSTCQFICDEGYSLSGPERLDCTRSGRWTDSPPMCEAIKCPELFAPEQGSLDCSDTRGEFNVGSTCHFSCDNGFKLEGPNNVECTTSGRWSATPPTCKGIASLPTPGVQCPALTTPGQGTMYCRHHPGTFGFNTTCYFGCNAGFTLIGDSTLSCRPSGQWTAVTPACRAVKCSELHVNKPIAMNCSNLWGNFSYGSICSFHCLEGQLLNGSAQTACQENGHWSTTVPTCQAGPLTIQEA
In words: inhibition assay of SO3-sLea-PAA-biotin binding to immobilized P-selectin. The settings on record: inhibition of HSO3-Lea-PAA-biotin (0.33 μg/ml) binding to immobilized human P-selectin/IgG-Fc, 2 hours at 37° C. The procedure: The activity of compound 3 was evaluated in an inhibition assay of SO3-sLe^a-PAA-biotin binding to immobilized P-selectin as described in the literature (G. Weitz-Schmedt et al., Anal. Biochem. 238, 184-190, 1996) and compared to that of its mannosyl analogue (reference compound 2). A 96 microtiter plate (High binding flat bottom, Costar, Corning, U.S.A.) was coated overnight at 4° C. with 10 μg/ml goat anti-human IgG in coating buffer (50 mM NaHCO3, pH 9.6). Subsequently, wells were washed with assay buffer (20 mM HEPES, 150 mM NaCl, 1 mM CaCl2, pH 7.4) and incubated for 1 hour at 37° C. with blocking buffer (3% BSA in assay buffer). After washing with assay buffer, the wells were incubated for 2 hours at 37° C. with human P-selectin/IgG-Fc (0.3 μg/ml) or CD4/IgG-Fc (as negative control). Subsequently, wells were washed three times with assay buffer and incubated for 2 hours at 37° C. in binding buffer (0.1% BSA, 0.05% Tween 20 in assay buffer) with 0.33 μg/ml HSO3-Le^a-PAA-biotin and the compound. The wells were washed six times with binding buffer and 3,3′,5,5′-tetramethylbenzine (TMB)/H2O2 was added and incubated at room temperature for 15 minutes. The reaction was halted by addition of 2M H2SO4 and the absorbance was measured at 450 nm.
The binding of compounds 6d, 6f, and 6i to P-selectin was evaluated using the same inhibition assay as described in example 2.

`O=C(COP(=O)(O)O)C(O)C(O)COC1OC(CO)C(O)C(O)C1O` (centres unmarked) [Compound 3] yielded an EC50 of 2 mM.
For `O=C(NC1C(OCC(O)C(O)C(=O)COP(=O)(O)O)OC(CO)C(O)C1O)OCC(Cl)(Cl)Cl` (centres unmarked) [Compound 6d] the value was 3.7 mM; for `CCCCCCCC(=O)NC1C(OCC(O)C(O)C(=O)COP(=O)(O)O)OC(CO)C(O)C1O` (centres unmarked) [Compound 6c], 4.5 mM; for `O=C(COP(=O)(O)O)C(O)C(O)COC1OC(CO)C(O)C(O)C1O` (centres unmarked) [Reference compound 2, reference compound], 8.2 mM.
In the case of `O=C(NC1C(OCC(O)C(O)C(=O)COP(=O)(O)O)OC(CO)C(O)C1O)c1ccccc1` (centres unmarked) [Compound 6f] it was 0.9 mM.
